According to the NIST ThermoML archive (doi:10.1016/j.jct.2013.09.026):
± gives the expanded uncertainty stated by the source.

Conditions: 298.15 K; 101.33 kPa; Liquid; Vibrating tube method

mass density	SMILES
799.656 ± 0.17 kg/m3	CCCO [propan-1-ol]
722.814 ± 0.19 kg/m3	CCN(CC)CC [triethylamine]

SMILES	mass density
CCC(C)=O [butanone]	799.969 ± 0.17 kg/m3
